{
  "source": "patent US10813944B2",
  "about": "“Cyclodextrins as procoagulants” (STICHTING SANQUIN BLOEDVOORZIENING, priority 2016, dated 2020)",
  "assay_type_in_all_cases": "biochemical, human",
  "key": {"[1]": {"test_system": "plasma of a hemophilia A patient containing anti-FVIII antibodies", "test": "Thrombin generation in plasma of a hemophilia A patient with anti-factor VIII antibodies", "conditions": "anti-FVIII antibodies 50 BU", "description": "FIG. 28: Effect of OKL-1111 (A), OKL-1180 (B) and OKL-1187 (C) on coagulation in plasma of a hemophilia A patient with anti-factor VIII antibodies. BU=Bethesda Units.\n(§1) The Calibrated Automated Thrombogram® assays the generation of thrombin in clotting plasma using a microtiter plate reading fluorometer (Fluoroskan Ascent, ThermoLab systems, Helsinki, Finland) and Thrombinoscope® software (Thrombinoscope BV, Maastricht, The Netherlands). The assay was carried out as described by Hemker et al. (Pathofysiol. IIaemost. Thromb. 2003, 33, 4-15), and the Thrombinoscope® manual. Coagulation was triggered by recalcification in the presence of 1 or 5 pM recombinant human tissue factor (Innovin®, Siemens, Marburg, Germany), 4 μM phospholipids, and 417 μM fluorogenic substrate Z-Gly-Gly-Arg-AMC (Bachem, Bubendorf, Switzerland). Fluorescence was monitored using the Fluoroskan Ascent fluorometer (ThermoLabsystems, Helsinki, Finland), and the lag time, peak thrombin, velocity index and area under the curve (ETP) were calculated using the Thrombinoscope® software (Thrombinoscope BV).\nThe patient had developed antibodies against factor VIII prior to plasma withdrawal. The plasma contained high levels of anti-FVIII antibodies (50 BU)."}, "[2]": {"test_system": "plasma deficient in coagulation factor IX", "test": "Thrombin generation assay in plasma deficient in coagulation factor IX", "description": "as §1"}, "[3]": {"test_system": "plasma deficient in coagulation factor VIII", "test": "Thrombin generation assay in plasma deficient in coagulation factor VIII", "description": "FIG. 20: Plasma deficient in coagulation factor VIII was spiked with cyclodextrin OKL-1111 (A), OKL-1180 (B), and OKL-1187 (C) at the indicated concentrations.\nas §1"}, "[4]": {"test_system": "thrombin generation in pooled normal plasma", "test": "Calibrated Automated Thrombogram thrombin generation assay in pooled normal plasma", "conditions": "no anticoagulant; cyclodextrin 100 μM unless otherwise indicated; 1 pM TF", "description": "(§2) FIGS. 3-8, 12, 14-19 and 22-27: Pooled normal plasma was spiked with cyclodextrins (100 μM, unless otherwise indicated) and anticoagulants. The concentrations of the anticoagulants were 100 ng/ml for dabigatran (A), 100 ng/ml for rivaroxaban (B), 60 ng/ml for apixaban (C), 60 ng/ml for edoxaban (D). The plasmas were subjected to thrombin generation analysis as described in the Materials and Methods section with 1 pM tissue factor (TF) as initiator of coagulation.\nas §1\nThrombin generation analyses were performed in pooled normal plasma with and without the addition of anticoagulants."}, "[5]": {"test_system": "thrombin generation in pooled normal plasma spiked with anticoagulants", "test": "Thrombin generation assay in pooled normal plasma spiked with anticoagulants", "conditions": "cyclodextrin 100 μM, 1 pM TF", "description": "as §2\nFIG. 9: Pooled normal plasma was spiked with OKL-1111 (100 μM, unless otherwise indicated (A)) and anticoagulants (B-E). The concentrations of the anticoagulants were 100 ng/ml for dabigatran (B), 100 ng/ml for rivaroxaban (C), 60 ng/ml for apixaban (D), 60 ng/ml for edoxaban (E). The plasmas were subjected to thrombin generation analysis as described in the Materials and Methods section with 1 pM tissue factor (TF) as initiator of coagulation.\nFIG. 10: Pooled normal plasma was spiked with OKL-1111 (100 μM) and anticoagulants (A-F). The concentrations of the anticoagulants were 2 μg/ml for fondaparinux (A), 0.4 U/ml for nadroparin (B), 0.1 U/ml for tinzaparin (C), 0.03 U/ml for unfractionated heparin (UFH) (D), 0.5 U/ml for hirudin (E) and 10 μg/ml for bivalirudin (F). The plasmas were subjected to thrombin generation analysis as described in the Materials and Methods section with 1 pM tissue factor (TF) as initiator of coagulation.\nas §1"}},
  "data": [
    {"smiles": "O=C(O)CCCCCCCSCC1OC2OC3C(CSCCCCCCCC(=O)O)OC(OC4C(CSCCCCCCCC(=O)O)OC(OC5C(CSCCCCCCCC(=O)O)OC(OC6C(CSCCCCCCCC(=O)O)OC(OC7C(CSCCCCCCCC(=O)O)OC(OC8C(CSCCCCCCCC(=O)O)OC(OC1C(O)C2O)C(O)C8O)C(O)C7O)C(O)C6O)C(O)C5O)C(O)C4O)C(O)C3O", "note": "(centres unmarked) [OKL-1180]", "values": [
      {"measurement": "thrombin generation in hemophilia A patient plasma", "setting": "[1]", "result": "concentration-dependently stimulated thrombin generation"},
      {"measurement": "procoagulant activity in factor IX deficient plasma", "setting": "[2]", "result": "procoagulant activity"},
      {"measurement": "procoagulant effect in factor VIII deficient plasma", "setting": "[3]", "result": "procoagulant effects"},
      {"measurement": "procoagulant effect in normal plasma", "setting": "[4]", "result": "procoagulant activity"}
    ]},
    {"smiles": "O=C(O)CCCCCSCC1OC2OC3C(CSCCCCCC(=O)O)OC(OC4C(CSCCCCCC(=O)O)OC(OC5C(CSCCCCCC(=O)O)OC(OC6C(CSCCCCCC(=O)O)OC(OC7C(CSCCCCCC(=O)O)OC(OC1C(O)C2O)C(O)C7O)C(O)C6O)C(O)C5O)C(O)C4O)C(O)C3O", "note": "(stereo not drawn) [OKL-1187, Alpha-per-S—C6-acid]", "values": [
      {"measurement": "thrombin generation in hemophilia A patient plasma", "setting": "[1]", "result": "concentration-dependently stimulated thrombin generation"},
      {"measurement": "effect on the anticoagulant effect of apixaban", "setting": "[5]; apixaban 60 ng/ml", "result": "strongly antagonized"},
      {"measurement": "effect on the anticoagulant effect of dabigatran", "setting": "[5]; dabigatran 100 ng/ml", "result": "strongly antagonized"},
      {"measurement": "effect on the anticoagulant effect of edoxaban", "setting": "[5]; edoxaban 60 ng/ml", "result": "strongly antagonized"},
      {"measurement": "effect on the anticoagulant effect of rivaroxaban", "setting": "[5]; rivaroxaban 100 ng/ml", "result": "strongly antagonized"},
      {"measurement": "procoagulant effect in factor VIII deficient plasma", "setting": "[3]", "result": "procoagulant effects"},
      {"measurement": "procoagulant effect in normal plasma", "setting": "[4]", "result": "very strong procoagulant effect"}
    ]}
  ]
}
